Measured values as given in patent US12595483B2, “Treatment of tumors with miRNA targeting CDK4/CDK6” (Institute For Cancer Research, priority 2017, dated 2026).

Tests used:
Assay type in all cases: cell-based, human
p21 = test: Western blot of p21 (cell cycle arrest); details: 50 nM mimic; 5-FU 384 μM (HT-29 and SW-480) or 25 μM (HCT-116 and RKO)
Description: (§1) Western blot: Western blotting was performed by routine and well known procedures. The following antibodies were used: CDK4 (Santa Cruz Biotechnology, sc-260), CDK6 (CST, D4S8S), CDK1 (Santa Cruz Biotechnology, sc-54), Cyclin-D1 (CST, 92G2), p-Rb (S795) (CST, 9301S), Total Rb, BCLxL (CST, 2764S), PARP (CST, 9542), p53-DO1 (Santa Cruz Biotechnology, sc-126), p21 (Calbiochem, OP64), and β-actin (Sigma, A5441).
(§2) A panel of CRC cell lines was reverse transfected with 25 nM (HCT-116) or 50 nM of SCR or indicated miRNA mimics. At 16 hours post-transfection, Irinotecan (see, FIG. 5A) or 5-FU (see, FIG. 5B) at indicated doses were added. Synergy of miRNA-drug was measured by cell viability 72 hours post-transfection using CellTiter-Glo assay. The effect on apoptosis and cell cycle markers with miRNA alone or combination were assessed using 50 nM of miRNA mimic and […] (HT-29 and SW-480) or 2.5 μM Irinotecan (HCT-116 and RKO) by western blot. For 5-FU, 384 μM (HT-29 and SW-480) and 25 μM (HCT-116 and RKO) were used. Representative western blots are shown in FIG. 5C and FIG. 5D, respectively.

phosphorylated Rb (S795) = test: Western blot of cell cycle markers; details: 100 nM miRNA mimics, 72 hours post-transfection; all four cell lines
Description: as §1
(§3) Referring in particular to FIGS. 3A, 3B, 3C, 3D, and 3E, data is presented showing that restoring expression of miR-6883-5p and miR-149* results in G1-arrest and cell death in CRC cell lines. […] The effects on cell viability were measured 72 hours post-transfection using CellTiter-Glo assay. Referring to FIG. 3B, the effects of the miRNA mimics on long-term cell proliferation of CRC cell lines was assessed by colony formation assays performed in 6-well plates. […] The effects on cell cycle markers (see, FIG. 3C) and markers of apoptosis (see, FIG. 3D) were evaluated by western blot 72 hours post-transfection. […] Referring to FIG. 3E, cell cycle profiles and apoptotic cells were assessed in three CRC cell lines by reverse transfecting with SCR or 50 nM (HCT-116 and HT-29) or 100 nM (RKO) miRNA mimics. 72 hours post-transfection, cells were fixed, stained with PI, and analyzed by FACS. […]

XIAP = test: Western blot of XIAP; details: 100 nM miRNA mimic, 72 hours
BCLXL = test: Western blot of BCLXL; details: 100 nM miRNA mimic, 72 hours
Description: as §1, §3

CDK6 = CDK6 protein (western blot) and RNA (qRT-PCR) expression in CRC cell lines transfected with miRNA mimics; details: 50 nM miRNA mimic vs scrambled duplex, 72 hours; HCT-116, RKO, HT-29, SW-480
Description: (§4) Transfection of miRNA mimics, siRNA and plasmid constructs: All miRNA mimics and siRNA transfections were performed by reverse transfection using Lipofectamine RNAiMAX (Life technologies, Grand Island, NY). 80 nM siRNA was used in all experiments for HT-29, RKO and SW-480 cell lines. 40 nM siRNA was used for HCT-116 cells. miRNA mimics were transfected at concentrations of either 25 nM, 50 nM, or 100 nM, as indicated in respective assays. CDK4-Luciferase vector was transfected in HCT-116 cells using Lipofectamine 3000 (Life technologies, Grand Island, NY) and stable cells were selected using G418 antibiotic (500 μg/mL).
(§5) Quantitative RT-PCR (qRT-PCR): Total RNA, which includes miRNA, was isolated using the Quick-RNA™ MiniPrep kit (Zymo Research, Irvine, CA). One μg of total RNA from each sample was subjected to cDNA synthesis using SuperScript® III Reverse Transcriptase kit (Life Technologies, Grand Island, NY), for detection of CDK4, CDK6, and housekeeping genes. […] The relative expression of the reported genes and miRNAs was determined using real-time PCR performed on Applied Biosystems 7900HT Fast Real-Time PCR system. […] Each cDNA sample was amplified using Power SYBR Green (Applied Biosystems, CA) and miRNA components were quantified using TaqMan® Universal Master Mix II, no UNG (Applied Biosystems, CA). […]

CDK4 = CDK4 protein (western blot) and RNA (qRT-PCR) expression in CRC cell lines transfected with miRNA mimics; details: 50 nM miRNA mimic vs scrambled duplex, 72 hours; HCT-116, RKO, HT-29, SW-480
Description: as §4, §5

CDK4 3′UTR = test: CDK4-Luciferase (pMirtarget CDK4 3′UTR) reporter assay in stable HCT-116 cells; details: 48 hours; for direct binding to the 3′UTR region of CDK4: pMirtarget-CDK4-Luciferase vector, HCT-116, 50 nM mimic
Description: as §4
Luciferase assays: CDK4-Luciferase containing stable HCT-116 cells were reverse-transfected with either scramble duplex or 50 nM miRNA mimics. Luciferase signal was detected 48 hours post-transfection and Relative Luciferase Units (RLU) were calculated by normalizing luciferase signal per μg of protein per assay well. All transfections were performed in triplicates and reported as RLU units±SEM.
Referring in particular to FIGS. 2A, 2B, and 2C, data is presented showing that miR-6883-5p and miR-149* negatively regulate expression of […] and CDK6 in CRC cell lines. Referring to FIG. 2A, CDK4 and CDK6 protein levels were detected in a panel of CRC cell lines reverse transfected with 50 nM of miRNA mimics or scrambled duplex (SCR) for 72 hours. Referring to FIG. 2B, qRT-PCR was performed for CDK4 and CDK6 in SCR or miRNA mimics transfected in CRC cell lines (50 nM, 72 hours, n=3). *, ** and *** indicate p-value relative to SCR expression. Referring to FIG. 2C, HCT-116 cells stably selected with CDK4-Luciferase construct were reverse transfected with SCR or 50 nM of the indicated miRNA mimics for 48 hours. Measured luciferase activities were normalized per μg of protein for indicated samples and reported as RLU±SEM (n=3). * indicates p-value relative SCR RLU.

[1] = tested on: panel of CRC cell lines (HCT-116, RKO, HT-29, SW-480); test: miRNA-Irinotecan synergy by cell viability (CellTiter-Glo); details: 25 nM (HCT-116) or 50 nM mimic, Irinotecan added 16 hours post-transfection, read 72 hours; all four cell lines
Description: (§6) Cell Proliferation assays: Five thousand to ten thousand cells were reverse transfected with either scramble duplex or miRNA to a net concentration of 50 nM and plated in 96-well plate. Cell viability was measured 72 hours post-transfection using CellTiter-Glo® Luminescent Cell Viability Assay (Promega). Percent cell viability was calculated by normalizing the luminescence signal to scramble duplex wells. All transfections were performed in triplicates and reported as % Viability±SEM.
as §2

PARP = test: Western blot of markers of apoptosis (PARP cleavage); details: RKO and SW-480 cells; 100 nM miRNA mimics, 72 hours
Description: Referring to FIG. 3A, a panel of CRC cell lines was reverse transfected with 50 nM SCR or 50 nM of indicated miRNA mimics. […] All four CRC cell lines were reverse transfected with 100 nM SCR or indicated miRNA mimics. The effects on cell cycle markers (see, FIG. 3C) and markers of apoptosis (see, FIG. 3D) were evaluated by western blot 72 hours post-transfection. Representative western blots are shown (n=3).

[2] = tested on: p53 mutant cell lines HT-29 and SW-480; test: miRNA-5-FU combination by cell viability (CellTiter-Glo); details: 50 nM mimic, 5-FU added 16 hours post-transfection, read 72 hours
Description: as §6, §2

Row | Compound | cell cycle arrest as seen by p21 levels, single agent (p21) | levels of phosphorylated Rb (S795) (phosphorylated Rb (S795)) | XIAP level (XIAP) | BCLXL level (BCLXL) | CDK6 protein and RNA level (CDK6) | CDK4 protein and RNA level (CDK4) | luciferase signal (CDK4 3′UTR; HCT-116 CDK4-Luciferase stable cells, 50 nM mimic, compared to miR-206 and miR-149*) | direct binding to the 3′UTR region of CDK4 (CDK4 3′UTR) | synergy with Irinotecan (cell viability) [1] | apoptosis (PARP-cleavage) (PARP) | sensitivity to 5-FU (cell viability) [2]
1 | O=c1[nH]cc(F)c(=O)[nH]1 [5-FU, 5-fluorouracil, reference compound] | caused cell cycle arrest |  |  |  |  |  |  |  |  |  | 
2 | hsa-miR-6883-5p (AGGGAGGGUGUGGUAUGGAUGU; called a modified oligonucleotide, chemistry not given here; listed as Homo sapiens) [miRNA mimic purchased from Sigma-Aldrich (HMI2616)] |  | reduced levels of phosphorylated Rb (S795) | downregulated XIAP and BCLXL | downregulated XIAP and BCLXL | targeted both CDK4 and CDK6 at both the protein and RNA level | targeted both CDK4 and CDK6 at both the protein and RNA level | significantly reduced luciferase signal | directly bind to the 3′UTR region of CDK4 | synergized with Irinotecan | most potent in inducing apoptosis | increased the sensitivity of p53 mutant cell lines HT-29 and SW-480 to 5-FU
3 | hsa-miR-149-3p [miR-149*] | caused cell cycle arrest | reduced levels of phosphorylated Rb (S795) |  |  | more potent in reducing levels of CDK6 | no impact on CDK4 |  | directly bind to the 3′UTR region of CDK4 | synergized with Irinotecan |  | increased the sensitivity of p53 mutant cell lines HT-29 and SW-480 to 5-FU
